Measured values: patent US6914045B2, “Glycopeptide antibiotics” (Wyeth Holdings Corporation, priority 2001, dated 2005)
Values after ≈ are worked out from the molar mass of the structure shown.

Columns and labels:
Assay in all cases: in vitro antibacterial evaluation, MIC by broth dilution
Format in all cases: cell-based
Enterococcus sp. = conditions: broth dilution, 18 hours at 35° C.
Outline: (§1)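 Broth dilution per NCCLS standard M7-A2 in Muller-Hinton II […], with an inoculum of 5×10^5 CFU/mL and antibiotic spanning 64-0.06 μg/mL. The MIC is the lowest concentration that inhibits growth of the organism.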

Staphylococcus sp. = conditions: broth dilution, 18 hours at 35° C.
Outline: as §1

Streptococcus sp. = conditions: broth dilution, 18 hours at 35° C.
Outline: as §1

Escherichia coli = conditions: 18 hours at 35° C.

`CC(c1ccccc1)C1NC(=O)CNC(=O)C(CO)NC(=O)C(C(O)C2CNC(=N)N2C2OC(CO)C(O)C3OC(C)(C)OC32)NC(=O)C(C(O)C2CNC(=N)N2)NC(=O)C(Cc2ccc(OC3OC(CO)C(OC4OC(CO)C(O)C5OC(C)(C)OC45)C4OC(C)(C)OC34)cc2)NC1=O` (stereo not shown) [Example 229a] was tested, and the “MIC Enterococcus avium (GC 4558)” value (Enterococcus sp.) was 128 µg/mL (≈ 90.4 µM), the “MIC Enterococcus faecalis (ATCC 29212)” value (Enterococcus sp.) was >128 µg/mL and the “MIC Enterococcus faecalis (GC 2242)” value (Enterococcus sp.) was >128 µg/mL. For the same compound, the “MIC Enterococcus faecalis (GC 2691)” value (Enterococcus sp.) was >128 µg/mL, the “MIC Enterococcus faecalis (GC 3059)” value (Enterococcus sp.) was >128 µg/mL and the “MIC Enterococcus faecalis (GC 4552)” value (Enterococcus sp.) was >128 µg/mL. For the same compound, the “MIC Enterococcus faecalis (GC 4553)” value (Enterococcus sp.) was >128 µg/mL, the “MIC Enterococcus faecalis (GC 4554)” value (Enterococcus sp.) was >128 µg/mL and the “MIC Enterococcus faecalis (GC 6189)” value (Enterococcus sp.) was >128 µg/mL. For the same compound, the “MIC Enterococcus faecium (GC 2243)” value (Enterococcus sp.) was >128 µg/mL, the “MIC Enterococcus faecium (GC 4556)” value (Enterococcus sp.) was >128 µg/mL and the “MIC Enterococcus faecium (GC 4557)” value (Enterococcus sp.) was >128 µg/mL. The “MIC Enterococcus faecalis (ATCC 29212)” value (Enterococcus sp.; inoculum 5×10^5 CFU/mL, strain ATCC 29212) was >128 µg/mL, the “MIC Enterococcus faecalis (GC 2242)” value (Enterococcus sp.; inoculum 5×10^5 CFU/mL, strain GC 2242) was >128 µg/mL and the “MIC Enterococcus faecium (GC 2243)” value (Enterococcus sp.; inoculum 5×10^5 CFU/mL, strain GC 2243) was >128 µg/mL. The “MIC Enterococcus faecalis (GC 2691)” value (Enterococcus sp.; inoculum 5×10^5 CFU/mL, strain GC 2691) was >128 µg/mL, the “MIC Enterococcus faecalis (GC 3059)” value (Enterococcus sp.; inoculum 5×10^5 CFU/mL, strain GC 3059) was >128 µg/mL and the “MIC Enterococcus faecalis (GC 4552)” value (Enterococcus sp.; inoculum 5×10^5 CFU/mL, strain GC 4552) was >128 µg/mL. For the same compound, the “MIC Enterococcus faecalis (GC 4553)” value (Enterococcus sp.; inoculum 5×10^5 CFU/mL, strain GC 4553) was >128 µg/mL, the “MIC Enterococcus faecalis (GC 4554)” value (Enterococcus sp.; inoculum 5×10^5 CFU/mL, strain GC 4554) was >128 µg/mL and the “MIC Enterococcus faecium (GC 4556)” value (Enterococcus sp.; inoculum 5×10^5 CFU/mL, strain GC 4556) was >128 µg/mL. The “MIC Enterococcus faecium (GC 4557)” value (Enterococcus sp.; inoculum 5×10^5 CFU/mL, strain GC 4557) was >128 µg/mL, the “MIC Enterococcus avium (GC 4558)” value (Enterococcus sp.; inoculum 5×10^5 CFU/mL, strain GC 4558) was 128 µg/mL (≈ 90.4 µM) and the “MIC Enterococcus faecalis (GC 6189)” value (Enterococcus sp.; inoculum 5×10^5 CFU/mL, strain GC 6189) was >128 µg/mL. The “MIC Coagulase Negative Staphylococcus (GC 4547)” value (Staphylococcus sp.) was >128 µg/mL, the “MIC Coagulase Negative Staphylococcus (GC 4548)” value (Staphylococcus sp.) was >128 µg/mL and the “MIC Coagulase Negative Staphylococcus (GC 4549)” value (Staphylococcus sp.) was >128 µg/mL. For the same compound, the “MIC Coagulase Negative Staphylococcus (GC 4551)” value (Staphylococcus sp.) was >128 µg/mL, the “MIC Coagulase Negative Staphylococcus (GC 6257)” value (Staphylococcus sp.) was >128 µg/mL and the “MIC Staphylococcus aureus (ATCC 29213)” value (Staphylococcus sp.) was >128 µg/mL. For the same compound, the “MIC Staphylococcus aureus (GC 1131)” value (Staphylococcus sp.) was >128 µg/mL, the “MIC Staphylococcus aureus (GC 3051)” value (Staphylococcus sp.) was >128 µg/mL and the “MIC Staphylococcus aureus (GC 3053)” value (Staphylococcus sp.) was >128 µg/mL. For the same compound, the “MIC Staphylococcus aureus (GC 4541)” value (Staphylococcus sp.) was >128 µg/mL, the “MIC Staphylococcus aureus (GC 4542)” value (Staphylococcus sp.) was >128 µg/mL and the “MIC Staphylococcus aureus (GC 4544)” value (Staphylococcus sp.) was >128 µg/mL. The “MIC Staphylococcus aureus (GC 4545)” value (Staphylococcus sp.) was >128 µg/mL, the “MIC Staphylococcus aureus-SMITH (GC 4543)” value (Staphylococcus sp.) was >128 µg/mL and the “MIC Staphylococcus haemolyticus (GC 4546)” value (Staphylococcus sp.) was >128 µg/mL. For the same compound, the “MIC Staphylococcus aureus (ATCC 29213)” value (Staphylococcus sp.; strain ATCC 29213) was >128 µg/mL, the “MIC Staphylococcus aureus (GC 1131)” value (Staphylococcus sp.; strain GC 1131) was >128 µg/mL and the “MIC Staphylococcus aureus (GC 3051)” value (Staphylococcus sp.; strain GC 3051) was >128 µg/mL. The “MIC Staphylococcus aureus (GC 3053)” value (Staphylococcus sp.; strain GC 3053) was >128 µg/mL, the “MIC Staphylococcus aureus (GC 4541)” value (Staphylococcus sp.; strain GC 4541) was >128 µg/mL and the “MIC Staphylococcus aureus (GC 4542)” value (Staphylococcus sp.; strain GC 4542) was >128 µg/mL. The “MIC Staphylococcus aureus-SMITH (GC 4543)” value (Staphylococcus sp.; strain GC 4543) was >128 µg/mL, the “MIC Staphylococcus aureus (GC 4544)” value (Staphylococcus sp.; strain GC 4544) was >128 µg/mL and the “MIC Staphylococcus aureus (GC 4545)” value (Staphylococcus sp.; strain GC 4545) was >128 µg/mL. The “MIC Staphylococcus haemolyticus (GC 4546)” value (Staphylococcus sp.; strain GC 4546) was >128 µg/mL, the “MIC Coagulase Negative Staphylococcus (GC 4547)” value (Staphylococcus sp.; strain GC 4547) was >128 µg/mL and the “MIC Coagulase Negative Staphylococcus (GC 4548)” value (Staphylococcus sp.; strain GC 4548) was >128 µg/mL. For the same compound, the “MIC Coagulase Negative Staphylococcus (GC 4549)” value (Staphylococcus sp.; strain GC 4549) was >128 µg/mL, the “MIC Coagulase Negative Staphylococcus (GC 4551)” value (Staphylococcus sp.; strain GC 4551) was >128 µg/mL and the “MIC Coagulase Negative Staphylococcus (GC 6257)” value (Staphylococcus sp.; strain GC 6257) was >128 µg/mL. The “MIC Streptococcus agalactiae (GC 4564)” value (Streptococcus sp.) was >128 µg/mL, the “MIC Streptococcus pneumoniae (ATCC 6301)” value (Streptococcus sp.) was >128 µg/mL and the “MIC Streptococcus pneumoniae (GC 1894)” value (Streptococcus sp.) was >128 µg/mL. For the same compound, the “MIC Streptococcus pneumoniae (GC 4565)” value (Streptococcus sp.) was >128 µg/mL, the “MIC Streptococcus pyogenes (GC 4563)” value (Streptococcus sp.) was >128 µg/mL and the “MIC Streptococcus pneumoniae (ATCC 6301)” value (Streptococcus sp.; inoculum 5×10^5 CFU/mL, strain ATCC 6301) was >128 µg/mL. For the same compound, the “MIC Streptococcus pneumoniae (GC 1894)” value (Streptococcus sp.; inoculum 5×10^5 CFU/mL, strain GC 1894) was >128 µg/mL, the “MIC Streptococcus pyogenes (GC 4563)” value (Streptococcus sp.; inoculum 5×10^5 CFU/mL, strain GC 4563) was >128 µg/mL and the “MIC Streptococcus agalactiae (GC 4564)” value (Streptococcus sp.; inoculum 5×10^5 CFU/mL, strain GC 4564) was >128 µg/mL. The “MIC Streptococcus pneumoniae (GC 4565)” value (Streptococcus sp.; inoculum 5×10^5 CFU/mL, strain GC 4565) was >128 µg/mL, the “MIC Escherichia coli (ATCC 25922)” value (Escherichia coli) was >128 µg/mL and the “MIC Escherichia coli (GC 4559)” value (Escherichia coli) was >128 µg/mL. For the same compound, the “MIC Escherichia coli (GC 4560)” value (Escherichia coli) was >128 µg/mL.
